Results from US12509461B2, “Enhanced performance of amorphous solid and solubilized formulations for achieving therapeutic plasma concentrations” (BRISTOL-MYERS SQUIBB COMPANY, priority 2019, dated 2025).

Assays:
[1] = Aqueous solubility and ionization of Compound (I); type: physicochemical
Source text: [drawing 2] and is referred to herein as “Compound (I)”. Compound (I), a process to prepare Compound (I), and methods of treatment employing Compound (I) are disclosed in U.S. Patent Application Publication No. 2016/0096839, which is assigned to the present assignee and incorporated herein by reference in its entirety. […] These characteristics of Compound (I) render it difficult to formulate for oral administration to achieve therapeutically effective blood levels.

[2] = Microcentrifuge dissolution test in 0.5% SIF in PBS pH 6.5; type: physicochemical; conditions: control; 1000 μg/mL if all of drug had dissolved
Method: Microcentrifuge dissolution tests were performed in a 37° C. temperature-controlled box. Weighed 1 mg of sample into each of two 2.0 mL Sorenson microcentrifuge tubes. Added 1.8 mL of 0.5% SIF in phosphate buffered saline (PBS) (pH 6.5) to each tube and started the timer. Vortexed the samples for 1 minute on Setting 8 on a Fisher Vortex Genie 2. Centrifuged the samples for 1 minute at 13,000 rpm using an IEC Micromax microcentrifuge. When the timer reads 4 minutes, extracted 50 μL of supernatant from each microcentrifuge tube into a HPLC vial containing 250 μL of diluent (HPLC-grade 95:5 THF:Water). Vortexed the mixtures for 25 seconds. Repeated the steps for following time points: 10, 20, 40, and 90 minutes, and again at 20 hours.
Analyzed the samples by HPLC using the method below:
As a control, crystalline Compound (I) alone was evaluated using the same procedure. A sufficient amount of material was added so that the concentration of Compound (I) would have been 1000 μg/mL, if all of drug had dissolved.
The concentrations of Compound (I) obtained in these samples were used to determine the maximum dissolved concentration of Compound (I) in solution during the first ninety minutes of the test (MDC90), the area under the concentration-versus-time curve during the initial ninety minutes (AUC90).

Compound | ionization ([1]; physiologically relevant region) | aqueous solubility ([1]; room temperature) | AUC90 [2] [µg/mL] | Cmax90 [2] [µg/mL]
C[C@@H]1CCC[C@H](n2cnc(-c3cc(Cl)ccc3-n3cc(Cl)nn3)cc2=O)c2cc(ccn2)-c2c(cnn2C(F)F)NC1=O [Compound (I), (9R,13S)-13-{4-[5-chloro-2-(4-chloro-1H-1,2,3-triazol-1-yl)phenyl]-6-oxo-1,6-dihydropyrimidin-1-yl}-3-(difluoromethyl)-9-methyl-3,4,7,15-tetraazatricyclo[12.3.1.0^2,6]octadeca-1(18),2(6),4,14,16-pentaen-8-one] | non-ionizable | low aqueous solubility |  | 
C[C@@H]1CCC[C@H](n2cnc(-c3cc(Cl)ccc3-n3cc(Cl)nn3)cc2=O)c2cc(ccn2)-c2c(cnn2C(F)F)NC1=O [Crystalline API, (9R,13S)-13-{4-[5-chloro-2-(4-chloro-1H-1,2,3-triazol-1-yl)phenyl]-6-oxo-1,6-dihydropyrimidin-1-yl}-3-(difluoromethyl)-9-methyl-3,4,7,15-tetraazatricyclo[12.3.1.0^2,6]octadeca-1(18),2(6),4,14,16-pentaen-8-one] |  |  | 1810 | 26
